Results from patent US7410974B2, “Halogenated Quinazolinyl nitrofurans as antibacterial agents” (Ulysses Pharmaceutical Products, Inc., priority 2003, dated 2008).
Converted amounts (≈) assume the structure as drawn. Read-outs that look alike come from different tables or passages of the source.

Tests used:
E. faecium ATCC 35667 = assay: MIC broth microdilution (NCCLS); format: cell-based, Enterococcus faecium; conditions: Enterococcus faecium, ATCC35667, E. faecium ATCC 35667; read-out: MIC
Description: (§1) Minimal Inhibitory Concentration (MIC) Determination. Bacteria (primary strain panel, TABLE 1). Susceptibility tests were performed following the recommendations from the National Committee for Clinical Standards (NCCLS). The MICs were determined by a broth microdilution technique using a final volume of 100 μl of cation-adjusted Mueller Hinton Broth (MHBCA) and a bacterial inoculum of 10^5-10^6 Colony Forming Units (CFU)/ml. The inocula were verified and precisely determined by applying 10-μl drops of 10-fold dilutions onto Triptic Soy Agar plates. The CFU were counted after an incubation of 24 h at 35° C. Any experiment showing an inoculum that was more or less than 10^5-10^6 CFU/ml was rejected. Control antibiotics and test compounds were prepared at a concentration equivalent to 2-fold the highest desired final concentration. Compounds were then diluted directly in the 96-well microtiter plates by serial 2-fold dilutions using a multichannel pipette. Microtiter plates were incubated during 24 h at 35° C. and growth was recorded by using a microtiterplate reader at 650 nm as well as by visual observation. The MIC was defined as the lowest concentration of compound yielding no visible growth. […] Fastidious bacteria. The medium used for Listeria monocytogenes, Neisseria meningitidis, and Campylobacter jejuni was MHBCA containing 2% laked horse blood. The medium used for Haemophilus influenzae and Branhamella (Moraxella) catarrhalis was HTM as recommended by the NCCLS. Cultures of these fastidious bacteria were incubated at 35° C. in a 5% CO2 atmosphere. […] The medium used for Bacteroides fragilis was Wilkins Chalgren broth and growth was allowed under an anaerobic atmosphere at 35° C. for 48 hours.

[1] = system: S. saprophyticus ATCC 15305; assay: MIC broth microdilution (NCCLS); format: cell-based, Staphylococcus saprophyticus; conditions: Staphylococcus saprophyticus, ATCC15305; S. saprophyticus ATCC 15305; read-out: MIC
Description: as §1

S. aureus ATCC 29213 = assay: MIC broth microdilution (NCCLS); format: cell-based, Staphylococcus aureus; conditions: Staphylococcus aureus, ATCC29213; S. aureus ATCC 29213; read-out: MIC
Description: as §1

[2] = system: S. epidermidis ATCC 12228; assay: MIC broth microdilution (NCCLS); format: cell-based, Staphylococcus epidermidis; conditions: Staphylococcus epidermidis, ATCC12228; S. epidermidis ATCC 12228; read-out: MIC
Description: as §1

[3] = system: S. saprophyticus ATCC 15305; assay: Minimal Bactericidal Concentration (MBC); format: cell-based; conditions: Staphylococcus saprophyticus, ATCC15305; S. saprophyticus ATCC 15305; 99.9% killing; read-out: MBC
Description: (§2) Minimal Bactericidal Concentration (MBC). After the microtiter plates were read for the determination of the MIC, a 10-μl sample of each clear well (at least 5 wells without visible growth) was applied onto TSA plates for viable counts determination.
(§3) Petri dishes were incubated at 35° C. for exactly 24 h and bacterial colonies were counted.

E. coli ATCC 25922 [4] = assay: Minimal Bactericidal Concentration (MBC); format: cell-based; conditions: Escherichia coli, ATCC25922, 99.9% killing
Description: as §2, §3

C. jejuni ATCC 33291 = assay: MIC broth microdilution (NCCLS), fastidious bacteria; format: cell-based; conditions: Campylobacter jejuni, ATCC33291
Description: as §1

[5] = system: L. monocytogenes ATCC 13932; assay: as above; format: cell-based; conditions: Listeria monocytogenes, ATCC13932, MHBCA with 2% laked horse blood, 5% CO2
Description: as §1

E. faecalis ATCC 29212 = assay: MIC broth microdilution (NCCLS); format: cell-based, Enterococcus faecalis; conditions: Enterococcus faecalis, ATCC29212; E. faecalis ATCC 29212; read-out: MIC
Description: as §1

S. aureus MRSA COL = assay: MIC broth microdilution (NCCLS); format: cell-based, Staphylococcus aureus; conditions: S. aureus MRSA COL
Description: as §1, with “hours. […]” for “hours.”

E. coli ATCC 25922 [6] = assay: MIC broth microdilution (NCCLS); format: cell-based, Escherichia coli; conditions: Escherichia coli, ATCC25922, E. coli ATCC 25922 (Reference); read-out: MIC
Description: as §1

B. fragilis ATCC 25285 = assay: MIC broth microdilution (NCCLS), anaerobic; format: cell-based; conditions: Bacteroides fragilis
Description: as §1

MRSA strain Sa253c = assay: MIC broth microdilution, antibiotic resistant strain panel; format: cell-based, Staphylococcus aureus; conditions: Staphylococcus aureus
Description: as §1
(§4) Finally, compounds were also tested against populations of various clinical strains (antibiotic resistant strain panel, TABLE 1).

MRSA strain Sa220c = assay: as above; format: cell-based, Staphylococcus aureus; conditions: Staphylococcus aureus; multi-resistant MRSA strain Sa220c; read-out: MIC
Description: as §1, §4

MRSA strain Sa234c = assay: as above; format: cell-based, Staphylococcus aureus; conditions: Staphylococcus aureus; multi-resistant MRSA strain Sa234c; read-out: MIC
Description: as §1, §4

MRSA strain Sa211c = assay: as above; format: cell-based, Staphylococcus aureus; conditions: Staphylococcus aureus; multi-resistant MRSA strain Sa211c; read-out: MIC
Description: as §1, §4

MRSA strain Sa224c = assay: as above; format: cell-based, Staphylococcus aureus; conditions: Staphylococcus aureus; multi-resistant MRSA strain Sa224c; read-out: MIC
Description: as §1, §4

MRSA strain Sa248c = assay: as above; format: cell-based, Staphylococcus aureus; conditions: Staphylococcus aureus; multi-resistant MRSA strain Sa248c; read-out: MIC
Description: as §1, §4

MRSA strain Sa212c = assay: as above; format: cell-based, Staphylococcus aureus; conditions: Staphylococcus aureus; multi-resistant MRSA strain Sa212c; read-out: MIC
Description: as §1, §4

MRSA strain Sa249c = assay: as above; format: cell-based, Staphylococcus aureus; conditions: Staphylococcus aureus; multi-resistant MRSA strain Sa249c; read-out: MIC
Description: as §1, §4

MRSA strain Sa228c = assay: as above; format: cell-based, Staphylococcus aureus; conditions: Staphylococcus aureus; multi-resistant MRSA strain Sa228c; read-out: MIC
Description: as §1, §4

Solubility in water = format: physicochemical
Description: Solubility of Compounds V and XV. The extent of solubility of compounds was evaluated in water.

B. catarrhalis ATCC 8176 = assay: MIC broth microdilution (NCCLS), fastidious bacteria; format: cell-based, Branhamella (Moraxella) catarrhalis; conditions: Moraxella catarrhalis, ATCC8176, HTM, 5% CO2
Description: as §1

E. faecium VanA = assay: MIC broth microdilution, antibiotic resistant strain panel; format: cell-based; conditions: Enterococcus faecium; multi-resistant E. faecium VanA; read-out: MIC
Description: as §1, §4

H. influenzae ATCC 49766 = assay: MIC broth microdilution (NCCLS), fastidious bacteria; format: cell-based; conditions: Haemophilus influenzae, ATCC49766, HTM, 5% CO2
Description: as §1

H. influenzae ATCC 49247 = assay: as above; format: cell-based; conditions: Haemophilus influenzae, ATCC49247, HTM, 5% CO2
Description: as §1

M. smegmatis ATCC 19420 = assay: as above; format: cell-based, Mycobacterium smegmatis; conditions: Mycolicibacterium smegmatis, ATCC19420, read after 48 hours
Description: as §1

A. baumannii ATCC 19606 = assay: MIC broth microdilution (NCCLS); format: cell-based, Acinetobacter baumannii; conditions: Acinetobacter baumannii, ATCC19606, read-out: MIC
Description: as §1

[7] = system: Y. enterocolytica ATCC 23715; assay: MIC broth microdilution (NCCLS); format: cell-based, Yersinia enterocolytica; conditions: Yersinia, ATCC23715, read-out: MIC
Description: as §1

[8] = Staphylococcus aureus, MRSA, read-out: MIC
[9] = ATCC25285, B. fragilis ATCC 25285, Wilkins Chalgren broth, anaerobic, 48 hours, read-out: MIC

MIC [5] | MIC (B. fragilis ATCC 25285; [9]) | Compound | MIC (E. faecium ATCC 35667) | MIC [1] | MIC (S. aureus ATCC 29213) | MIC [2] | MBC [3] | MBC (E. coli ATCC 25922 [4]) | MIC (E. faecalis ATCC 29212) | MIC (S. aureus MRSA COL; [8]) | MIC (E. coli ATCC 25922 [6]) | MIC (MRSA strain Sa220c) | MIC (MRSA strain Sa234c) | MIC (MRSA strain Sa211c) | MIC (MRSA strain Sa224c) | MIC (MRSA strain Sa248c) | MIC (MRSA strain Sa212c) | MIC (MRSA strain Sa249c) | MIC (MRSA strain Sa228c) | MIC (M. smegmatis ATCC 19420) | also measured
0.001 µg/mL (≈ 0.00309 µM) | 4 µg/mL (≈ 12.4 µM) | O=C(N[C@H](CO)[C@H](O)c1ccc([N+](=O)[O-])cc1)C(Cl)Cl [Chloramphenicol] | 8 µg/mL (≈ 24.8 µM) | 4 to 8 µg/mL (≈ 12.4 to 24.8 µM) | 16 µg/mL (≈ 49.5 µM) | 8 µg/mL (≈ 24.8 µM) | 16 to 32 µg/mL (≈ 49.5 to 99 µM) | 16 µg/mL (≈ 49.5 µM) | 8 µg/mL (≈ 24.8 µM) | 8 µg/mL (≈ 24.8 µM) | 4 µg/mL (≈ 12.4 µM) | – | – | – | – | – | – | – | – | – | MIC (C. jejuni ATCC 33291; C. jejuni ATCC 33291, MHBCA with 2% laked horse blood, 5% CO2, read-out: MIC): 4 µg/mL (≈ 12.4 µM)
0.5 µg/mL (≈ 1.02 µM) | 0.5 µg/mL (≈ 1.02 µM) | CN1CCN(c2cc3nc(C=Cc4ccc([N+](=O)[O-])o4)nc(Nc4ccc(O)cc4)c3cc2F)CC1 [Compound XV, 7-(4-methylpiperazino)-6-fluoro-2-[2-(5-nitro-2-furyl)vinyl]-4-(p-hydroxyanilino)-quinazoline] | 8 µg/mL (≈ 16.3 µM) | 2 µg/mL (≈ 4.08 µM) | 2 µg/mL (≈ 4.08 µM) | 1 to 2 µg/mL (≈ 2.04 to 4.08 µM) | – | – | 2 to 8 µg/mL (≈ 4.08 to 16.3 µM) | 0.5 µg/mL (≈ 1.02 µM) | – | 0.25 µg/mL (≈ 0.51 µM) | 2 µg/mL (≈ 4.08 µM) | 2 µg/mL (≈ 4.08 µM) | 1 µg/mL (≈ 2.04 µM) | 0.5 µg/mL (≈ 1.02 µM) | 4 µg/mL (≈ 8.16 µM) | 0.5 µg/mL (≈ 1.02 µM) | 2 µg/mL (≈ 4.08 µM) | 0.25 µg/mL (≈ 0.51 µM) | MIC (MRSA strain Sa253c; multi-resistant MRSA strain Sa253c, read-out: MIC): 2 µg/mL (≈ 4.08 µM); solubility relative to Compound V (Solubility in water): 4 times; solubility (Solubility in water; read-out: solubility in water (no visible particles)): 1000 µg/mL (≈ 2040 µM); MIC (B. catarrhalis ATCC 8176): 0.5 µg/mL (≈ 1.02 µM); MIC (E. faecium VanA): 0.5 µg/mL (≈ 1.02 µM); MIC (H. influenzae ATCC 49766): 2 µg/mL (≈ 4.08 µM); MIC (H. influenzae ATCC 49247): 2 µg/mL (≈ 4.08 µM)
– | – | C[C@@H](O)[C@H]1C(=O)N2C(C(=O)O)=C(SCCN=CN)C[C@H]12 [Imipenem] | 2 µg/mL (≈ 6.68 µM) | 0.03 µg/mL (≈ 0.1 µM) | 0.015 µg/mL (≈ 0.0501 µM) | 0.008 to 0.015 µg/mL (≈ 0.0267 to 0.0501 µM) | 0.03 to 0.06 µg/mL (≈ 0.1 to 0.2 µM) | – | 0.5 µg/mL (≈ 1.67 µM) | 16 µg/mL (≈ 53.4 µM) | 0.12 µg/mL (≈ 0.401 µM) | – | – | – | – | – | – | – | – | – | MIC (A. baumannii ATCC 19606): 16 µg/mL (≈ 53.4 µM); MIC [7]: 0.5 µg/mL (≈ 1.67 µM); MIC (C. jejuni ATCC 33291): 0.125 µg/mL (≈ 0.418 µM); MIC (B. fragilis ATCC 25285; ATCC25285, 48 h): 0.125 to 0.5 µg/mL (≈ 0.418 to 1.67 µM)

Compound | MIC [5] | MIC (B. fragilis ATCC 25285; [9]) | MIC (E. faecium ATCC 35667) | MIC [1] | MIC (S. aureus ATCC 29213) | MIC [2] | MBC [3] | MBC (E. coli ATCC 25922 [4]) | MIC (E. faecalis ATCC 29212) | MIC (S. aureus MRSA COL; [8]) | MIC (E. coli ATCC 25922 [6]) | MIC (MRSA strain Sa220c) | MIC (MRSA strain Sa234c) | MIC (MRSA strain Sa211c) | MIC (MRSA strain Sa224c) | MIC (MRSA strain Sa248c) | MIC (MRSA strain Sa212c) | MIC (MRSA strain Sa249c) | MIC (MRSA strain Sa228c) | MIC (M. smegmatis ATCC 19420) | also measured
CCn1cc(C(=O)O)c(=O)c2cc(F)c(N3CCNCC3)cc21 [Norfloxacin] | 0.008 µg/mL (≈ 0.0251 µM) | – | 16 µg/mL (≈ 50.1 µM) | 2 µg/mL (≈ 6.26 µM) | 1 µg/mL (≈ 3.13 µM) | 0.5 µg/mL (≈ 1.57 µM) | 4 µg/mL (≈ 12.5 µM) | 0.06 µg/mL (≈ 0.188 µM) | 4 µg/mL (≈ 12.5 µM) | 0.5 to 1 µg/mL (≈ 1.57 to 3.13 µM) | 0.03 µg/mL (≈ 0.0939 µM) | > 32 µg/mL | > 32 µg/mL | > 32 µg/mL | > 32 µg/mL | 32 µg/mL (≈ 100 µM) | > 32 µg/mL | 32 µg/mL (≈ 100 µM) | > 32 µg/mL | 2 µg/mL (≈ 6.26 µM) | MIC (MRSA strain Sa253c; MRSA): > 128 µg/mL; MIC (S. aureus MRSA COL): 1 µg/mL (≈ 3.13 µM)
